Literature values, collected in US20230158080A1 ([…], LLC, priority 2021, published 2023).

Legend:
EPC = details: different doses of R1881
androgen receptor = androgen receptor (Homo sapiens, UniProt P10275); details: stimulation of EPCs
[1] = tested on: CD34+/F1k1+ and CD34+/VE-cadherin+ cells; details: castrated rats after testosterone supplementation

androgen receptor, sequence (P10275 whole entry): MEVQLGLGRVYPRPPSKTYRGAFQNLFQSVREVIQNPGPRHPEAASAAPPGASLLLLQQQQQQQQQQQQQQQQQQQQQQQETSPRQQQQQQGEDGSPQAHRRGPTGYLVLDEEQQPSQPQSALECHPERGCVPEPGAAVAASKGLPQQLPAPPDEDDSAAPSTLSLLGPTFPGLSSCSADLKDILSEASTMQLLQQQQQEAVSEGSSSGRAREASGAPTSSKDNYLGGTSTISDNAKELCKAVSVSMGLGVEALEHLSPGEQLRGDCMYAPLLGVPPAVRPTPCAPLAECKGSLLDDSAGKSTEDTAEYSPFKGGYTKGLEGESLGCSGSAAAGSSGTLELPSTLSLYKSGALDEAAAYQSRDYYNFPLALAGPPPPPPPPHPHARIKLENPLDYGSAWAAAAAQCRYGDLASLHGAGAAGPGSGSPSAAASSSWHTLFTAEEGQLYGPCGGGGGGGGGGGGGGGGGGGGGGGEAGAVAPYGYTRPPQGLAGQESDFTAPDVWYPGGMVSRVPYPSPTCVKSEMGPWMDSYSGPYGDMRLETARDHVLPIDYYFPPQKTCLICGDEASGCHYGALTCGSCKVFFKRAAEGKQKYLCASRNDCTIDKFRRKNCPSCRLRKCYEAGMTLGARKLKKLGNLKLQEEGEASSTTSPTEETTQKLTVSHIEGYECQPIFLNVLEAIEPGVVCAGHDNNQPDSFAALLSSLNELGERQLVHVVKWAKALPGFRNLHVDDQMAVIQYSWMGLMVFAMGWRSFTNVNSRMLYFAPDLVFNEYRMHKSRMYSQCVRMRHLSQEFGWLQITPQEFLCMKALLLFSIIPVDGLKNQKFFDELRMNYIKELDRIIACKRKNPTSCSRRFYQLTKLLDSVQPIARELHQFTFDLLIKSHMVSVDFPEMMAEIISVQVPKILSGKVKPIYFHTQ

Row | SMILES | EPC proliferation, migration and colony formation (EPC) | androgen receptor translocation in the nucleus (androgen receptor) | percentage of EPC marker-positive cells in corpus cavernosum [1]
1 | C[C@]1(O)CC[C@H]2[C@@H]3CCC4=CC(=O)CCC4=C3C=C[C@@]21C [R1881, methyltrienolone] | dose-dependent increase | caused androgen receptor translocation in the nucleus | 
2 | C[C@]12CC[C@H]3[C@@H](CCC4=CC(=O)CC[C@@]43C)[C@@H]1CC[C@@H]2O [testosterone] |  |  | restored
